Drawing on ChEMBL document CHEMBL4507278 (2021), this text covers residual activity, inhibition and IC50 for 2 compounds.

The subject of experiment [1] is Tyrosine-protein kinase ABL1 (Homo sapiens), P00519 [M351T]. To be noted: Compound concentration 1000.0 nM.
Experiment [2] concerns the target 5-hydroxytryptamine receptor 2C (Homo sapiens) (UniProt P28335). The following applies: Compound concentration 10.0 uM.
Experiment [3] concerns the target C-C chemokine receptor type 1 (Homo sapiens, UniProt P32246). In words: Ca flux.
Experiment [4] concerns the target Gamma-aminobutyric acid type B receptor subunit 1 (Homo sapiens) (UniProt Q9UBS5). In words: GABA_B1A Eurofins-Panlabs selectivity data (BI). The following applies: Compound concentration 10.0 uM.
For experiment [5], the target named is Estrogen receptor (Homo sapiens) (UniProt P03372). In words: ERALPHA/H Eurofins-Panlabs selectivity data (BI). To be noted: Compound concentration 10.0 uM.
In experiment [6] the target is Sodium- and chloride-dependent GABA transporter 1 (Rattus norvegicus) (UniProt P23978). In words: GABATRANS/RA Eurofins-Panlabs selectivity data (BI). To be noted: Compound concentration 10.0 uM.
The target of experiment [7] is Glucocorticoid receptor (Homo sapiens) (UniProt P04150). In words: GLUCOCORTICO Eurofins-Panlabs selectivity data (BI). To be noted: Compound concentration 10.0 uM.
The target of experiment [8] is D(3) dopamine receptor (Homo sapiens) (UniProt P35462). The following applies: Compound concentration 10.0 uM.
For experiment [9], the target named is Thyroid hormone receptor alpha (Rattus norvegicus) (UniProt P63059). In words: THYROID HORM Eurofins-Panlabs selectivity data (BI). To be noted: Compound concentration 10.0 uM.
For experiment [10], the target named is Histamine H3 receptor (Homo sapiens) (UniProt Q9Y5N1). Description: H3/H Eurofins-Panlabs selectivity data (BI). The following applies: Compound concentration 10.0 uM.
The target in experiment [11] is Sodium-dependent serotonin transporter (Homo sapiens) (UniProt P31645). Description: 5HTTRANS/HU Eurofins-Panlabs selectivity data (BI). The following applies: Compound concentration 10.0 uM.
The target in experiment [12] is ATP-sensitive inward rectifier potassium channel 1 isoform X1 (Mesocricetus auratus) (UniProt A0A1U8CU73). In words: K+/KATP/HA Eurofins-Panlabs selectivity data (BI). The following applies: Compound concentration 10.0 uM.
The target of experiment [13] is T1, 5-hydroxytryptamine receptor 1A (Homo sapiens) (UniProt P08908).
T1 sequence (whole entry): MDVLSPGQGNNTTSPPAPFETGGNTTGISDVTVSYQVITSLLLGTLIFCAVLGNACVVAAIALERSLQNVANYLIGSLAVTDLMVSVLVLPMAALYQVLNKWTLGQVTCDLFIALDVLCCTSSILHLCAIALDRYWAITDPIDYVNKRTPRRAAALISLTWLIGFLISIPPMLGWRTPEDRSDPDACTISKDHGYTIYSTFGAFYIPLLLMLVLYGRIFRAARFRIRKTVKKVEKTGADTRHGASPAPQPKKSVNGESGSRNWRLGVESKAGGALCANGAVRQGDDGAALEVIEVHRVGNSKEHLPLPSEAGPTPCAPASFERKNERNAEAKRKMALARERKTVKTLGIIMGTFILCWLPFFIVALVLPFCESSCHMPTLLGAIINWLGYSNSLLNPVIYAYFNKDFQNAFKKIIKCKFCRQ
Description: 5HT1A/HU Eurofins-Panlabs selectivity data (BI). To be noted: Compound concentration 10.0 uM.

The target of experiment [14] is Endothelin-1 receptor (Homo sapiens) (UniProt P25101). Description: ETA/HU Eurofins-Panlabs selectivity data (BI). To be noted: Compound concentration 10.0 uM.
Experiment [15] concerns the target Kappa-type opioid receptor (Homo sapiens) (UniProt P41145). In words: KAPPA/HU Eurofins-Panlabs selectivity data (BI). To be noted: Compound concentration 10.0 uM.
For experiment [16], the target named is Gamma-aminobutyric acid receptor subunit alpha-1 (Rattus norvegicus) (UniProt P62813). Description: GABAA MUSCIMOL CENT Eurofins-Panlabs selectivity data (BI). The following applies: Compound concentration 10.0 uM.
Experiment [17] shares this target. Description: GABAACENTR Eurofins-Panlabs selectivity data (BI). To be noted: Compound concentration 10.0 uM.
In experiment [18] the target is Epidermal growth factor receptor (Homo sapiens) (UniProt P00533). Description: EGF/HU Eurofins-Panlabs selectivity data (BI). The following applies: Compound concentration 10.0 uM.
Experiment [19] deals with T2, 5-hydroxytryptamine receptor 3A (Homo sapiens) (UniProt P46098).
T2 sequence (whole entry): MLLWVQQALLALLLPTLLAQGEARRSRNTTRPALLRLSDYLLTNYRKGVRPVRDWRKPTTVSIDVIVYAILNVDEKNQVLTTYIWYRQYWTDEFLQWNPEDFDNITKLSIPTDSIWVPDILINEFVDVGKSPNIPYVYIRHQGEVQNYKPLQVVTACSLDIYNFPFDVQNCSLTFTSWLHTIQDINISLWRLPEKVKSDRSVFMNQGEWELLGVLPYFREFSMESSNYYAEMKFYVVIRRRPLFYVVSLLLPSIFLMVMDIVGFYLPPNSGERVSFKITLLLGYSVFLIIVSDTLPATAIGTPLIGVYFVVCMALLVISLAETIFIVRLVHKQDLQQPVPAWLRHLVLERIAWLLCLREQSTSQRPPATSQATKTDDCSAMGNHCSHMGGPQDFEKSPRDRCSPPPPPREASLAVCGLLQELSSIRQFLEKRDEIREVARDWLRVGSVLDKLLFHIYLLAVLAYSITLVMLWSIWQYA
In words: 5HT3/HU Eurofins-Panlabs selectivity data (BI). To be noted: Compound concentration 10.0 uM.

The target of experiment [20] is 3',5'-cyclic-AMP phosphodiesterase 4A (Rattus norvegicus) (UniProt P54748). Description: ROLIPRAM/R Eurofins-Panlabs selectivity data (BI). The following applies: Compound concentration 10.0 uM.
Experiment [21] has as its target Neuropeptide Y receptor type 1 (Homo sapiens) (UniProt P25929). Description: Y1/HU Eurofins-Panlabs selectivity data (BI). To be noted: Compound concentration 10.0 uM.
Experiment [22] deals with Beta-2 adrenergic receptor (Homo sapiens) (UniProt P07550). In words: BETA2/HU Eurofins-Panlabs selectivity data (BI). To be noted: Compound concentration 10.0 uM.
Experiment [23] has as its target B2 bradykinin receptor (Homo sapiens) (UniProt P30411). Description: B2/H Eurofins-Panlabs selectivity data (BI). To be noted: filed as antagonist, Compound concentration 10.0 uM.
Experiment [24] has as its target 5-hydroxytryptamine receptor 2B (Homo sapiens) (UniProt P41595). In words: 5HT2B/HU Eurofins-Panlabs selectivity data (BI). To be noted: Compound concentration 10.0 uM.
Experiment [25] concerns the target T3, D(4) dopamine receptor (Homo sapiens) (UniProt P21917).
T3 sequence (whole entry): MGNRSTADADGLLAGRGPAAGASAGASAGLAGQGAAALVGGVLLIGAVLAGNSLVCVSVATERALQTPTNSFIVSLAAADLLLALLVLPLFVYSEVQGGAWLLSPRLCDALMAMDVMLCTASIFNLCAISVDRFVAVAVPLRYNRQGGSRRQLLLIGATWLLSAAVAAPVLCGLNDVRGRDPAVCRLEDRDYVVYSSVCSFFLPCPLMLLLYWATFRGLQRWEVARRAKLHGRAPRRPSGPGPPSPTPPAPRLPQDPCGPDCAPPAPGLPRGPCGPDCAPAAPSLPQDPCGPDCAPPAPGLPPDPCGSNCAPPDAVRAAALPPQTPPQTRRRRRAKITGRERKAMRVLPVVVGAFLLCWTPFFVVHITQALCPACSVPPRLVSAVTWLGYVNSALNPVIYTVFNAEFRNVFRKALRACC
Description: D4.2/H Eurofins-Panlabs selectivity data (BI). The following applies: Compound concentration 10.0 uM.

In experiment [26] the target is Adenosine receptor A3 (Homo sapiens) (UniProt P0DMS8). Description: A3/H Eurofins-Panlabs selectivity data (BI). The following applies: Compound concentration 10.0 uM.
Experiment [27] deals with Prostaglandin E2 receptor EP4 subtype (Homo sapiens) (UniProt P35408). Description: PEP4_HU Eurofins-Panlabs selectivity data (BI). To be noted: Compound concentration 10.0 uM.
Experiment [28] addresses D(2) dopamine receptor (Homo sapiens) (UniProt P14416). In words: D2S/HU Eurofins-Panlabs selectivity data (BI). To be noted: Compound concentration 10.0 uM.

Sequence of Gamma-aminobutyric acid receptor subunit alpha-1 (Rattus norvegicus) (P62813 whole entry): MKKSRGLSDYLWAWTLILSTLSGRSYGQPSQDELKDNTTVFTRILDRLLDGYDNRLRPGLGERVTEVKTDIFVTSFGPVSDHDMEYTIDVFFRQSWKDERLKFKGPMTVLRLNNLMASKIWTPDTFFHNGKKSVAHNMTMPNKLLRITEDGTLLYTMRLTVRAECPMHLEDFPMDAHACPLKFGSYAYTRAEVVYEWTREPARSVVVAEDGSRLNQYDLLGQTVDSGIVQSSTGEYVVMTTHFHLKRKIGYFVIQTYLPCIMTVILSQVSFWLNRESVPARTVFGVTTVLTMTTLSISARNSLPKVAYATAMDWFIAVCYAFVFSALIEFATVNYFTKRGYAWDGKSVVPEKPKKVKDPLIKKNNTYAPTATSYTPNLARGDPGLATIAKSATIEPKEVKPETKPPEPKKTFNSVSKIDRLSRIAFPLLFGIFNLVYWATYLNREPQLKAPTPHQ
Sequence of Estrogen receptor (Homo sapiens) (P03372 whole entry): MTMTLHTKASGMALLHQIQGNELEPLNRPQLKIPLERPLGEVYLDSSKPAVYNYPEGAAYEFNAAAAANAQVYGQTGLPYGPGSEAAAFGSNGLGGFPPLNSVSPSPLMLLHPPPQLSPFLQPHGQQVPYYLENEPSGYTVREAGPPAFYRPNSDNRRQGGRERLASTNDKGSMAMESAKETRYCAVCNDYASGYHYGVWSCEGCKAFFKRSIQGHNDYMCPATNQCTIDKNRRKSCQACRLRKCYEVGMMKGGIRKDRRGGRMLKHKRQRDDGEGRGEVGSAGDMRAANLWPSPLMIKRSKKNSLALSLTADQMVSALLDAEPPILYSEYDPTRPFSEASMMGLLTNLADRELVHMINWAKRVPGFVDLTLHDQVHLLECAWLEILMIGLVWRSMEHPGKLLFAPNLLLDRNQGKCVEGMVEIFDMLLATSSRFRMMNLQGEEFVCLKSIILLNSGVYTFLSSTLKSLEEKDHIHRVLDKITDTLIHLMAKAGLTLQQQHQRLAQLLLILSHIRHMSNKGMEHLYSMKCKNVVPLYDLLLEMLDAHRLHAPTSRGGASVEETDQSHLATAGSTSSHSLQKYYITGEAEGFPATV
Sequence of Kappa-type opioid receptor (Homo sapiens) (P41145 whole entry): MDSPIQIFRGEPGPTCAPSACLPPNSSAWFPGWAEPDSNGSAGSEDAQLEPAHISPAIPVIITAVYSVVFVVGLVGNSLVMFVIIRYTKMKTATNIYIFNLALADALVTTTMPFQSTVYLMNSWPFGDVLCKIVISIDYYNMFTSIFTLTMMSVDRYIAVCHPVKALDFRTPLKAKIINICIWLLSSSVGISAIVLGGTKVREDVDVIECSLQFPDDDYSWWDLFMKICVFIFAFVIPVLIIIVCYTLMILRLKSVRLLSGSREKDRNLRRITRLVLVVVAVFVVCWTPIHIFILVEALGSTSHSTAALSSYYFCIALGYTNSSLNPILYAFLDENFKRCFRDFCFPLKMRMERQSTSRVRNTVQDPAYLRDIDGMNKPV
Sequence of ATP-sensitive inward rectifier potassium channel 1 isoform X1 (Mesocricetus auratus) (A0A1U8CU73 as listed by the source): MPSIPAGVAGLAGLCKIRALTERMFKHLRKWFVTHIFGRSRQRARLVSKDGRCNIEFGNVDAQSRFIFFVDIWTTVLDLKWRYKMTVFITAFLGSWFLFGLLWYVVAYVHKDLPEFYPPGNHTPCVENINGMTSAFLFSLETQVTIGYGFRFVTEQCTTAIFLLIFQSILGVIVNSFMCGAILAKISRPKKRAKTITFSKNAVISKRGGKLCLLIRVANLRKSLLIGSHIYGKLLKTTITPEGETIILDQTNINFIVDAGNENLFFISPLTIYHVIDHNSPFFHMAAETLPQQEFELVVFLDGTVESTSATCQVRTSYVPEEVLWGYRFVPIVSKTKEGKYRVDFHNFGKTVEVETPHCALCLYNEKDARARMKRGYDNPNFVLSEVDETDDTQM
Sequence of Endothelin-1 receptor (Homo sapiens) (P25101 whole entry): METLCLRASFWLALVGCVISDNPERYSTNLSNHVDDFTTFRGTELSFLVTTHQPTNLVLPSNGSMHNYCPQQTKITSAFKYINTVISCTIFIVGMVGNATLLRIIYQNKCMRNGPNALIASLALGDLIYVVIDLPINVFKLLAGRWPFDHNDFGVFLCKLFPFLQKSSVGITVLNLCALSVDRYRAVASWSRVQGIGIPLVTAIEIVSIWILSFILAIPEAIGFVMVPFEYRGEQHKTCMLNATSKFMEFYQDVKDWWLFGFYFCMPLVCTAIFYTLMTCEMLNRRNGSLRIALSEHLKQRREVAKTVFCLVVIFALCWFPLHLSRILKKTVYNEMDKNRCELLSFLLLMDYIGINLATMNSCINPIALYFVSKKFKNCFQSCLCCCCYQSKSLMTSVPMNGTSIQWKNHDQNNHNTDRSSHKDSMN
Sequence of 5-hydroxytryptamine receptor 2B (Homo sapiens) (P41595 whole entry): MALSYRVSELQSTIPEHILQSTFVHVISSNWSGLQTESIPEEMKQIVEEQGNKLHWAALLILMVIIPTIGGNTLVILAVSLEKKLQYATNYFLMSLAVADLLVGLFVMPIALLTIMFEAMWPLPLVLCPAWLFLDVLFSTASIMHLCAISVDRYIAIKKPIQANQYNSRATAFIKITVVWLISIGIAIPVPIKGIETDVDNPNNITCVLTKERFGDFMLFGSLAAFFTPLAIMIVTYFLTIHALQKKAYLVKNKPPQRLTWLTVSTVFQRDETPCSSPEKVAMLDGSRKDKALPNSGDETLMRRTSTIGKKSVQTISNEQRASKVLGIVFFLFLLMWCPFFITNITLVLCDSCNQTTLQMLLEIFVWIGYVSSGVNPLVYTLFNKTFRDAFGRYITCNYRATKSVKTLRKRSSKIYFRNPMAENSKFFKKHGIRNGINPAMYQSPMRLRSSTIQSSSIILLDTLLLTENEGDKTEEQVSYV
Sequence of Prostaglandin E2 receptor EP4 subtype (Homo sapiens) (P35408 whole entry): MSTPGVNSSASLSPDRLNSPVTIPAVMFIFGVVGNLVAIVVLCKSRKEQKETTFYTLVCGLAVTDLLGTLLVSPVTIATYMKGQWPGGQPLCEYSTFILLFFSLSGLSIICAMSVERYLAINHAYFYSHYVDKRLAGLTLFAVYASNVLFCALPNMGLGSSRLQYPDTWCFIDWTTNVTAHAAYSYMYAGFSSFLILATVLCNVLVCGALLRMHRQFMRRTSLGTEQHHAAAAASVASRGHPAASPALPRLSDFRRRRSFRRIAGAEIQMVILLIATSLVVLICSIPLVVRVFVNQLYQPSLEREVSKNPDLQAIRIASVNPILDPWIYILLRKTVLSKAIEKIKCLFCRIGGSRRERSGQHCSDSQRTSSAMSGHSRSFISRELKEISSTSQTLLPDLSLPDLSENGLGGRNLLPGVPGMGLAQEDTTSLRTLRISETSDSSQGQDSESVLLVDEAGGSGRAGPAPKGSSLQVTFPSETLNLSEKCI
Sequence of Beta-2 adrenergic receptor (Homo sapiens) (P07550 whole entry, looked up): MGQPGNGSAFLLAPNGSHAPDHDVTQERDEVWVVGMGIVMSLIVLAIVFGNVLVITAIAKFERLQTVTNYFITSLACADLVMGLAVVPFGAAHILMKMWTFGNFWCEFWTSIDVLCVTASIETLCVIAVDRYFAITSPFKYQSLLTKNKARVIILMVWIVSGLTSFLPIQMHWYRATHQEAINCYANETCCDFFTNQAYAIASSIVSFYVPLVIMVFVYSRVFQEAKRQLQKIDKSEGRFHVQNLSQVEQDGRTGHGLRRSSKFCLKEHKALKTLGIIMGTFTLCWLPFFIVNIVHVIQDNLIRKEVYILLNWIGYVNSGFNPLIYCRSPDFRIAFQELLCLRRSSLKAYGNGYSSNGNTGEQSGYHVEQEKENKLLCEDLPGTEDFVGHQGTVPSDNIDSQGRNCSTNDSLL
Sequence of Sodium-dependent serotonin transporter (Homo sapiens) (P31645 whole entry, looked up, canonical isoform): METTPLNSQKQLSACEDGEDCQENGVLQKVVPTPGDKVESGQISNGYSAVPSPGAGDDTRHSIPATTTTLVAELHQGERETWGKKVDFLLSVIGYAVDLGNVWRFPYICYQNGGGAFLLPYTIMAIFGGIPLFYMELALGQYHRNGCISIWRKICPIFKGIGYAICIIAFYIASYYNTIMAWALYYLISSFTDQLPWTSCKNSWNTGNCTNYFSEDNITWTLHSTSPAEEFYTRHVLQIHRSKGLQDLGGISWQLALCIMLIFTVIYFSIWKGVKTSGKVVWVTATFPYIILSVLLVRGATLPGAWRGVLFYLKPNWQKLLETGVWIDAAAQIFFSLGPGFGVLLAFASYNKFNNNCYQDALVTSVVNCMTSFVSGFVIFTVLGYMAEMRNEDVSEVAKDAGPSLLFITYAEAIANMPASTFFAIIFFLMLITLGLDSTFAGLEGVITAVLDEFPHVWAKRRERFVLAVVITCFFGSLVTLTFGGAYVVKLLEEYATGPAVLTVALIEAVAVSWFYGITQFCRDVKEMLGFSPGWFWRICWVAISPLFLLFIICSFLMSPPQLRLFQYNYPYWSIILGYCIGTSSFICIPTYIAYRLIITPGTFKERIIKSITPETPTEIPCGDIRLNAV

Turning to `CS(=O)(=O)NCC[C@H](NC(=O)c1cncc2c1cnn2-c1ccc(F)cc1)c1ccnc(S(C)(=O)=O)c1` [BI 9307], the residual activity in [1] was 100%. In addition, the inhibition in experiment [2] is -0.86%. The IC50 in experiment [3] was > 3000 nM (not active).
With `CS(=O)(=O)c1cc(C2(NC(=O)c3cncc4c3cnn4-c3ccc(F)cc3)CC2)ccn1` [BI 639667], the residual activity in [4] is 90%; in experiment [5], 100%; in [6], 89%; in [7], 96%; in [9] it was 74%; in experiment [10], 87%. Moreover, the residual activity in experiment [11] is 100%; in experiment [12], 100%; in experiment [13], 89%; in [14], 97%; in experiment [15] it was 101%; in experiment [16], 98%. Further, the residual activity was 104% in experiment [17]; 55% in experiment [18]; 124% in experiment [19]; 81% in experiment [20]; 101% in experiment [21]; 96% in experiment [22]. In addition, the residual activity in [23] was 100%; in experiment [24] it was 93%; in experiment [25], 94%; in experiment [26] it was 81%; in [27], 97%; in experiment [28] it was 93%. For the same compound, the inhibition in experiment [8] was 17.6%.

One may read the inhibition as the relative decrease from the control value, in per cent. The term IC50 denotes the concentration that inhibits the measured activity by half.
